In patent publication US20250188068A1, “AMIDO CYCLOPROPYL DERIVATIVES AS LPA RECEPTOR INHIBITORS” (CHIESI FARMACEUTICI S.P.A., priority 2022, published 2025):
pIC50: −log10 of the molar value.

Molecular target: T1, human recombinant LPA1 expressed in CHO cells (Homo sapiens, UniProt Q92633)
T1 construct: expressed in transfected cells; host or cells: CHO cells (CHO-hLPA1 cell line)
Test: FLIPR calcium mobilization assay, LPA1 antagonism in CHO-hLPA1 cells
Type: cell-based
Conditions: inhibition of LPA EC80 Ca2+ response, 30 min pre-incubation, range of activity
Procedure: The effectiveness of compounds of the present invention as LPA1 antagonist can be determined at the human recombinant LPA1 expressed in CHO cells, using a FLIPR assay in 384 well format.
CHO-hLPA1 cell lines are cultured in a humidified incubator at 5% CO2 in DMEM/F-12 (1:1) MIXTURE with 2 mM Glutamax, supplemented with 10% of Foetal Bovine Serum, 1 mM Sodium Pyruvate, 11 mM Hepes and 1× Penicillin/Streptomycin. CHO hLPA1 cells are seeded into black walled clear-bottom 384-well plates (#781091, Greiner Bio-One GmbH) at a density of 7,500 cells per well in 50 μl culture media and grown overnight in a 37° C. humidified CO2-incubator. Serial dilutions (1:3 or 1:4, 11 points CRC) of compounds are performed in 100% DMSO at 200× the final concentration. The compounds are diluted 1:50 prior to the experiment with Assay Buffer (20 mM HEPES, 145 mM NaCl, 5 mM KCl, 5.5 mM glucose, 1 mM MgCl2 and 2 mM CaCl2), pH 7.4 containing 0.01% Pluronic F-127) to obtain a solution corresponding to […] the final concentration in the assay (4×, 2% DMSO). The final concentration of DMSO in the assay will be 0.5% in each well. Medium is removed by aspiration and cells are then incubated with 30 μl of a loading solution containing 5 μM of the cytoplasmic Ca2+ indicator Cal-520 AM in Assay Buffer containing 2.5 mM probenecid for 30 min at 37° C. incubator (cell loading). The loaded cell plates are transferred into the FLIPR instrument and calcium responses are monitored during the on-line addition protocols. For testing of compounds, after the cell loading, 10 μl/well of 4× antagonists' solution was added onto the cells. After 30 min pre-incubation (at 37° C.), 10 μl/well of 5× concentrated LPA EC80 was added and Ca2+ mobilization responses was followed during the on-line addition protocol. Intracellular peak fluorescence values subtracted by baseline fluorescence are exported and analysed to determine IC50 values, respectively. The calcium response is expressed as percentage of the maximal inhibition of the EC80 agonist response.
The raw data obtained in unstimulated controls (DMSO, no LPA) are set as “100% inhibition”, while the raw data obtained in negative controls, i.e. in the absence of compounds and stimulating with LPA EC80, are set as “0% inhibition”.
The raw data (peak height expressed as relative fluorescence units) are normalized and transformed into “percent of inhibition”. Curve fitting and pIC50 (−Log IC50) estimations are carried out using a four-parameter logistic model using XLfit Software.

T1 sequence (Q92633 whole entry): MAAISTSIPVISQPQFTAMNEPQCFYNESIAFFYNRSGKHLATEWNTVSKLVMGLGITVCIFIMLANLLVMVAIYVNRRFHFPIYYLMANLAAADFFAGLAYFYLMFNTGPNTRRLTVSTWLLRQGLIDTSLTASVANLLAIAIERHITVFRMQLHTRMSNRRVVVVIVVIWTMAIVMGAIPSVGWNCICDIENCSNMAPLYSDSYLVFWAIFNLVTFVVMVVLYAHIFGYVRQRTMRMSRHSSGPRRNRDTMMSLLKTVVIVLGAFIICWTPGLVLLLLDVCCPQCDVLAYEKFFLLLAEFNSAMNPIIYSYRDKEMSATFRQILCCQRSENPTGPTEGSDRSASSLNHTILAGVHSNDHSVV

Row | SMILES | pIC50
1 | Cc1nc(-c2onc(C)c2CNc2nccc(-c3cccs3)n2)ccc1NC(=O)[C@@H]1[C@@H](C(=O)O)C1(F)F [Compound 24, (1S,3S)-2,2-difluoro-3-((2-methyl-6-(3-methyl-4-(((4-(thiophen-2-yl)pyrimidin-2-yl)amino)methyl)isoxazol-5-yl)pyridin-3-yl)carbamoyl)cyclopropane-1-carboxylic acid] | > 7.30
2 | Cc1nc(-c2onc(C)c2CNc2nccc(-c3ccco3)n2)ccc1NC(=O)[C@@H]1[C@@H](C(=O)O)C1(F)F [Compound 22, (1S,3S)-2,2-difluoro-3-((6-(4-(((4-(furan-2-yl)pyrimidin-2-yl)amino)methyl)-3-methylisoxazol-5-yl)-2-methylpyridin-3-yl)carbamoyl)cyclopropane-1-carboxylic acid] | 6.70 to 7.00
3 | C[C@@H](OC(=O)Nc1cn(C)nc1-c1ccc(NC(=O)[C@@H]2[C@@H](C(=O)O)C2(F)F)cc1)c1ccccc1Cl [Compound 38, (1S,3S)-3-((4-(4-((((R)-1-(2-chlorophenyl)ethoxy)carbonyl)amino)-1-methyl-1H-pyrazol-3-yl)phenyl)carbamoyl)-2,2-difluorocyclopropane-1-carboxylic acid] | 6.70 to 7.00
4 | Cc1nc(-c2onc(C)c2CNc2nccc(-c3cnccn3)n2)ccc1NC(=O)[C@@H]1[C@@H](C(=O)O)C1(F)F [Compound 23, (1S,3S)-2,2-difluoro-3-((2-methyl-6-(3-methyl-4-(((4-(pyrazin-2-yl)pyrimidin-2-yl)amino)methyl)isoxazol-5-yl)pyridin-3-yl)carbamoyl)cyclopropane-1-carboxylic acid] | > 7.30
5 | Cc1nc(-c2onc(C)c2NC(=O)O[C@H](C)c2ccccc2Cl)ccc1CNC(=O)C1C(C(=O)O)C1(F)F (mixture of isomers) [Compound 16, 3-(((6-(4-((((R)-1-(2-chlorophenyl)ethoxy)carbonyl)amino)-3-methylisoxazol-5-yl)-2-methylpyridin-3-yl)methyl)carbamoyl)-2,2-difluorocyclopropane-1-carboxylic acid, mix of Cis diastereomers] | 7.00 to 7.30
6 | Cc1nc(-c2onc(C)c2NC(=O)O[C@H](C)c2ccccc2Cl)ccc1NC(=O)C1C(c2noc(=S)[nH]2)C1(F)F (stereo partly drawn) [Compound 41, (R)-1-(2-chlorophenyl)ethyl (5-(5-(2,2-difluoro-3-(5-thioxo-4,5-dihydro-1,2,4-oxadiazol-3-yl)cyclopropane-1-carboxamido)-6-methylpyridin-2-yl)-3-methylisoxazol-4-yl)carbamate] | > 7.30
7 | Cc1nc(-c2onc(C)c2CNc2nccc(C3CCCCC3)n2)ccc1NC(=O)[C@@H]1[C@@H](C(=O)O)C1(F)F (racemic) [Compound 18, 3-((6-(4-(((4-cyclohexylpyrimidin-2-yl)amino)methyl)-3-methylisoxazol-5-yl)-2-methylpyridin-3-yl)carbamoyl)-2,2-difluorocyclopropane-1-carboxylic acid, mix of Trans diastereomers] | > 7.30
8 | Cc1noc(-c2ccc(N(C)C(=O)C3C(C(=O)O)C3(F)F)cc2)c1NC(=O)O[C@H](C)c1ccccc1Cl (single isomer, unassigned; diastereomer 2) [Compound 9] | 7.00 to 7.30
9 | Cc1noc(-c2ccc(NC(=O)[C@@H]3[C@@H](C(=O)O)C3(F)F)cc2)c1COC(=O)N(C)C1CCCC1 (racemic) [Compound 36, 3-((4-(4-(((cyclopentyl(methyl)carbamoyl)oxy)methyl)-3-methylisoxazol-5-yl)phenyl)carbamoyl)-2,2-difluorocyclopropane-1-carboxylic acid, mix of Trans diastereomers] | 6.70 to 7.00
10 | C[C@@H](OC(=O)Nc1ncoc1-c1ccc(NC(=O)[C@@H]2[C@@H](C(=O)O)C2(F)F)cc1)c1ccccc1Cl [Compound 40, methyl (1S,3S)-3-((4-(4-((((R)-1-(2-chlorophenyl)ethoxy)carbonyl)amino)oxazol-5-yl)phenyl)carbamoyl)-2,2-difluorocyclopropane-1-carboxlic acid] | 6.70 to 7.00
11 | Cc1noc(-c2ccc(NC(=O)C3C(c4nnn[nH]4)C3(F)F)cc2)c1NC(=O)O[C@H](C)c1ccccc1Cl (mixture of isomers) [Compound 13, (R)-1-(2-chlorophenyl)ethyl (5-(4-(2,2-difluoro-3-(1H-tetrazol-5-yl)cyclopropane-1-carboxamido)phenyl)-3-methylisoxazol-4-yl)carbamate, mix of Trans diastereomers] | > 7.30
12 | Cc1nc(-c2onc(C)c2CNc2nccc(-c3ccsc3)n2)ccc1NC(=O)[C@@H]1[C@@H](C(=O)O)C1(F)F [Compound 21, (1S,3S)-2,2-difluoro-3-((2-methyl-6-(3-methyl-4-(((4-(thiophen-3-yl)pyrimidin-2-yl)amino)methyl)isoxazol-5-yl)pyridin-3-yl)carbamoyl)cyclopropane-1-carboxylic acid] | > 7.30
13 | Cc1nc(-c2sccc2NC(=O)O[C@H](C)c2ccccc2Cl)ccc1NC(=O)C1C(C(=O)O)C1(F)F (single isomer, unassigned; diastereomer 2) [Compound 30] | 6.70 to 7.00
14 | C[C@@H](OC(=O)Nc1c(-c2ccc(NC(=O)[C@@H]3[C@@H](C(=O)O)C3(F)F)cc2)nnn1C)c1ccccc1Cl [Compound 35, (1S,3S)-3-((4-(5-((((R)-1-(2-chlorophenyl)ethoxy)carbonyl)amino)-1-methyl-1H-1,2,3-triazol-4-yl)phenyl)carbamoyl)-2,2-difluorocyclopropane-1-carboxylic acid] | > 7.30
15 | Cc1nc(-c2onc(C)c2NC(=O)O[C@H](C)c2ccccc2Cl)ccc1NC(=O)C1C(c2nnn[nH]2)C1(F)F (mixture of isomers) [Compound 14, (R)-1-(2-chlorophenyl)ethyl (5-(5-(2,2-difluoro-3-(1H-tetrazol-5-yl)cyclopropane-1-carboxamido)-6-methylpyridin-2-y1)-3-methylisoxazol-4-yl)carbamate, mix of Trans diastereomers] | > 7.30
16 | Cc1nc(-c2onc(C)c2NC(=O)O[C@H](C)c2ccccc2Cl)ccc1NC(=O)C1C(C(=O)O)C1(F)F (stereo partly drawn) [Compound 4, 3-((6-(4-((((R)-1-(2-chlorophenyl)ethoxy)carbonyl)amino)-3-methylisoxazol-5-yl)-2-methylpyridin-3-yl)carbamoyl)-2,2-difluorocyclopropane-1-carboxylic acid] | > 7.30
17 | Cc1nc(-c2nnn(C)c2NC(=O)O[C@H](C)c2ccccc2Cl)ccc1NC(=O)C1C(C(=O)O)C1(F)F (single isomer, unassigned) [Compound 32] | > 7.30
18 | Cc1nc(-c2onc(C)c2CNc2nccc(-c3cccnc3)n2)ccc1NC(=O)[C@@H]1[C@@H](C(=O)O)C1(F)F [Compound 25, (1S,3S)-2,2-difluoro-3-((2-methyl-6-(3-methyl-4-(((4-(pyridin-3-yl)pyrimidin-2-yl)amino)methyl)isoxazol-5-yl)pyridin-3-yl)carbamoyl)cyclopropane-1-carboxylic acid] | > 7.30
19 | Cc1noc(-c2ccc(N(C)C(=O)C3C(C(=O)O)C3(F)F)cc2)c1NC(=O)O[C@H](C)c1ccccc1Cl (single isomer, unassigned) [Compound 8] | 6.70 to 7.00
20 | Cc1nc(-c2snc(C)c2NC(=O)O[C@H](C)c2ccccc2Cl)ccc1NC(=O)C1C(C(=O)O)C1(F)F (single isomer, unassigned; diastereomer 1) [Compound 31] | > 7.30
21 | Cc1nc(-c2onc(C)c2NC(=O)O[C@H](C)c2ccccc2Cl)ccc1NC(=O)[C@@H]1[C@@H](C(=O)O)C1(F)F [Compound 1, (1S,3S)-3-((6-(4-((((R)-1-(2-chlorophenyl)ethoxy)carbonyl)amino)-3-methylisoxazol-5-yl)-2-methylpyridin-3-yl)carbamoyl)-2,2-difluorocyclopropane-1-carboxylic acid] | > 7.30
22 | Cc1nc(-c2onc(C)c2NC(=O)O[C@H](C)c2ccccc2Cl)ccc1NC(=O)C1C(c2nsc(=O)[nH]2)C1(F)F (stereo partly drawn) [Compound 43, (R)-1-(2-chlorophenyl)ethyl (5-(5-(2,2-difluoro-3-(5-oxo-4,5-dihydro-1,2,4-thiadiazol-3-yl)cyclopropane-1-carboxamido)-6-methylpyridin-2-yl)-3-methylisoxazol-4-yl)carbamate] | > 7.30
23 | C[C@@H](OC(=O)Nc1cccn1-c1ccc(NC(=O)[C@@H]2[C@@H](C(=O)O)C2(F)F)cc1)c1ccccc1Cl [Compound 39] | 6.70 to 7.00
